Test system: DIO mice
Assay: OGTT with co-administration of 6bK and sitagliptin
Type: in vivo, mouse
Details: OGTT 3.0 g kg^-1, sitagliptin 4 mg kg^-1 oral, 6bK 40 mg kg^-1

## N[C@@H](CC(=O)N1CCn2c(nnc2C(F)(F)F)C1)Cc1cc(F)c(F)cc1F [sitagliptin]
  reduction of blood glucose profile area compared to vehicle: 60–64%
